Results reported in ChEMBL document CHEMBL5154873, “Selective degradation of PARP2 by PROTACs via recruiting DCAF16 for triple-negative breast cancer” (Eur J Med Chem, 2022).
Calls of active or inactive are those of the source. No cut-off for these calls is given here.

Columns and labels:
CAPAN-1 = test: Antiproliferative activity against human BRCA2 -/- CAPAN-1 cells assessed as reduction in cell viability incubated for 5 to 10 days by MTT assay; type: functional, cell-based
MDA-MB-468 = test: Antiproliferative activity against human PTEN -/- MDA-MB-468 cells assessed as reduction in cell viability incubated for 5 to 10 days by MTT assay; type: functional, cell-based
[1] = target: DDB1- and CUL4-associated factor 16/Poly [ADP-ribose] polymerase 2 (Homo sapiens, UniProt Q9UGN5+Q9NXF7); test: Protac activity at DCAF16 E3 ligase/PARP2 in human MDA-MB-231 cells assessed as induction of PARP2 degradation at 1 uM measured after 24 hrs by Western blot analysis; type: cell-based
Chain of DDB1- and CUL4-associated factor 16/Poly [ADP-ribose] polymerase 2 (Q9NXF7 whole entry, looked up): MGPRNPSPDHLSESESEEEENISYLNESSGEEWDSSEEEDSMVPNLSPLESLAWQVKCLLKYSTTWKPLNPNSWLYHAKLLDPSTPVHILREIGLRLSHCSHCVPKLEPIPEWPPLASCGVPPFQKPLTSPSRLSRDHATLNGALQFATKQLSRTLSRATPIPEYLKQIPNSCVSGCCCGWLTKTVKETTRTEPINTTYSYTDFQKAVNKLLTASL
Chain of DDB1- and CUL4-associated factor 16/Poly [ADP-ribose] polymerase 2 (Q9UGN5 whole entry, looked up): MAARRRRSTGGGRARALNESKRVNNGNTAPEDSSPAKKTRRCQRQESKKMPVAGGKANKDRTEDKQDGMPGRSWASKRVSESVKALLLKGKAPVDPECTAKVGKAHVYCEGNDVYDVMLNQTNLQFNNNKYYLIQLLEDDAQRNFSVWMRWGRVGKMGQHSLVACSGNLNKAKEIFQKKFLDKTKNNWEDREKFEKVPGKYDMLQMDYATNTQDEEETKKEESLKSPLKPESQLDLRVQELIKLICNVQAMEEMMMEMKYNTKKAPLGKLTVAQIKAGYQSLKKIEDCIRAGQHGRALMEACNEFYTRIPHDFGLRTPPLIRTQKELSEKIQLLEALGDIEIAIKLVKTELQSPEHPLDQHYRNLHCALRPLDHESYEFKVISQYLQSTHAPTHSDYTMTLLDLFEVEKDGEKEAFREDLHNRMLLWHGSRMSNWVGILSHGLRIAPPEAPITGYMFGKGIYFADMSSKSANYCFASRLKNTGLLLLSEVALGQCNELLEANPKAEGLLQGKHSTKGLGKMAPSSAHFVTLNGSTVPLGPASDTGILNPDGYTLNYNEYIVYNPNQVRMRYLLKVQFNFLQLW

MDA-MB-436 = test: Antiproliferative activity against human BRCA1 -/- MDA-MB-436 cells assessed as reduction in cell viability incubated for 5 to 10 days by MTT assay; type: functional, cell-based
MDA-MB-231 = test: Antiproliferative activity against wild type human MDA-MB-231 cells assessed as reduction in cell viability incubated for 5 to 10 days by MTT assay; type: functional, cell-based

Row | Compound | IC50 (MDA-MB-468) | Activity [1] | IC50 (MDA-MB-436) | IC50 (MDA-MB-231) | IC50 (CAPAN-1)
1 | O=C(COc1ccc2c(c1)CCCN2C(=O)CCl)NCCNC(=O)CN1CCN(C(=O)c2cc(Cc3n[nH]c(=O)c4ccccc34)ccc2F)CC1 | 13.4 µM | – | 1.69 µM | > 20 µM | 3.3 µM
2 | O=C(COc1ccc2c(c1)CCCN2C(=O)CCl)NCCCCCCNC(=O)CN1CCN(C(=O)c2cc(Cc3n[nH]c(=O)c4ccccc34)ccc2F)CC1 | 11.2 µM | – | 1.96 µM | 12.3 µM | 4.36 µM
3 | O=C(COc1ccc2c(c1)CCCN2C(=O)CCl)NCCOCCOCCOCCOCCNC(=O)CN1CCN(C(=O)c2cc(Cc3n[nH]c(=O)c4ccccc34)ccc2F)CC1 | > 20 µM | – | 5.02 µM | > 20 µM | 7.04 µM
4 | O=C(COc1ccc2c(c1)CCCN2C(=O)CCl)NCCOCCOCCNC(=O)CN1CCN(C(=O)c2cc(Cc3n[nH]c(=O)c4ccccc34)ccc2F)CC1 | > 20 µM | – | 3.46 µM | > 20 µM | 7.63 µM
5 | O=C(CCC(=O)N1CCN(C(=O)c2cc(Cc3n[nH]c(=O)c4ccccc34)ccc2F)CC1)NCCOCCOCCNC(=O)COc1ccc2c(c1)CCCN2C(=O)CCl | 9.74 µM | – | 1.19 µM | 12.9 µM | 1.28 µM
6 | O=C(COc1ccc2c(c1)CCCN2C(=O)CCl)NCCOCCNC(=O)CN1CCN(C(=O)c2cc(Cc3n[nH]c(=O)c4ccccc34)ccc2F)CC1 | > 20 µM | – | 2.89 µM | > 20 µM | 5.28 µM
7 | O=C(COc1ccc2c(c1)CCCN2C(=O)CCl)NCCOCCOCCOCCNC(=O)CN1CCN(C(=O)c2cc(Cc3n[nH]c(=O)c4ccccc34)ccc2F)CC1 | > 20 µM | – | 1.74 µM | > 20 µM | 3.49 µM
8 | O=C(COc1ccc2c(c1)CCCN2C(=O)CCl)NCCCCNC(=O)CN1CCN(C(=O)c2cc(Cc3n[nH]c(=O)c4ccccc34)ccc2F)CC1 | 9.1 µM | – | 1.84 µM | 11.7 µM | 2.69 µM
9 | O=C(COc1ccc2c(c1)CCCN2C(=O)CCl)NCCCC(=O)N1CCN(C(=O)c2cc(Cc3n[nH]c(=O)c4ccccc34)ccc2F)CC1 | > 20 µM | – | 0.49 µM | > 20 µM | 0.84 µM
10 | O=C(COc1ccc2c(c1)CCCN2C(=O)CCl)NCCCNC(=O)CN1CCN(C(=O)c2cc(Cc3n[nH]c(=O)c4ccccc34)ccc2F)CC1 | > 20 µM | – | 2.7 µM | > 20 µM | 3.37 µM
11 | O=C(COc1ccc2c(c1)CCCN2C(=O)CCl)NCCOCCOCCOCCn1cc(CCCCC(=O)N2CCN(C(=O)c3cc(Cc4n[nH]c(=O)c5ccccc45)ccc3F)CC2)nn1 | 8.17 µM | – | 0.63 µM | 6.68 µM | 2.23 µM
12 | O=C(COc1ccc2c(c1)CCCN2C(=O)CCl)NCCC(=O)N1CCN(C(=O)c2cc(Cc3n[nH]c(=O)c4ccccc34)ccc2F)CC1 | > 20 µM | – | 0.66 µM | > 20 µM | 0.9 µM

The next compounds have a lower IC50 (MDA-MB-468) than those just listed; values first:

Row | IC50 (MDA-MB-468) | Activity [1] | IC50 (MDA-MB-436) | IC50 (MDA-MB-231) | Compound | IC50 (CAPAN-1)
13 | 0.72 µM | Active | 0.025 µM | 0.81 µM | O=C(COc1ccc2c(c1)CCCN2C(=O)CCl)NCCCCCCCCCCC(=O)N1CCN(C(=O)c2cc(Cc3n[nH]c(=O)c4ccccc34)ccc2F)CC1 | 0.068 µM
14 | 5.85 µM | – | 0.055 µM | 3.51 µM | O=C(COc1ccc2c(c1)CCCN2C(=O)CCl)NCC(=O)N1CCN(C(=O)c2cc(Cc3n[nH]c(=O)c4ccccc34)ccc2F)CC1 | 0.61 µM
15 | 6.01 µM | – | 1.48 µM | 8.27 µM | O=C(CCC(=O)N1CCN(C(=O)c2cc(Cc3n[nH]c(=O)c4ccccc34)ccc2F)CC1)NCCOCCNC(=O)COc1ccc2c(c1)CCCN2C(=O)CCl | 2.83 µM
16 | 2.23 µM | – | 0.043 µM | 3.1 µM | CCC(=O)N1CCCc2cc(OCC(=O)NCCCCCCCCCCC(=O)N3CCN(C(=O)c4cc(Cc5n[nH]c(=O)c6ccccc56)ccc4F)CC3)ccc21 | 0.087 µM
17 | 2.11 µM | Active | 0.11 µM | 4.23 µM | O=C(COc1ccc2c(c1)CCCN2C(=O)CCl)NCCCCCCCC(=O)N1CCN(C(=O)c2cc(Cc3n[nH]c(=O)c4ccccc34)ccc2F)CC1 | 0.12 µM
18 | 7.45 µM | Active | 0.82 µM | 9.74 µM | NC(=O)n1nc(Cc2ccc(F)c(C(=O)N3CCN(C(=O)CCC(=O)NCCCCNC(=O)COc4ccc5c(c4)CCCN5C(=O)CCl)CC3)c2)c2ccccc2c1=O | 1.96 µM
19 | 4.68 µM | – | 0.24 µM | 5.31 µM | O=C(COc1ccc2c(c1)CCCN2C(=O)CCl)NCCCCCC(=O)N1CCN(C(=O)c2cc(Cc3n[nH]c(=O)c4ccccc34)ccc2F)CC1 | 0.39 µM
20 | 5.9 µM | Active | 1.19 µM | 7.19 µM | O=C(CCC(=O)N1CCN(C(=O)c2cc(Cc3n[nH]c(=O)c4ccccc34)ccc2F)CC1)NCCCNC(=O)COc1ccc2c(c1)CCCN2C(=O)CCl | 1.87 µM
21 | 3.91 µM | Active | 0.35 µM | 5.59 µM | O=C(CCC(=O)N1CCN(C(=O)c2cc(Cc3n[nH]c(=O)c4ccccc34)ccc2F)CC1)NCCCCCCNC(=O)COc1ccc2c(c1)CCCN2C(=O)CCl | 0.99 µM
22 | 6.18 µM | Active | 1.48 µM | 8.44 µM | O=C(CCC(=O)N1CCN(C(=O)c2cc(Cc3n[nH]c(=O)c4ccccc34)ccc2F)CC1)NCCNC(=O)COc1ccc2c(c1)CCCN2C(=O)CCl | 3.16 µM
23 | 7.24 µM | – | 0.57 µM | > 20 µM | O=C(COc1ccc2c(c1)CCCN2C(=O)CCl)NCCCCC(=O)N1CCN(C(=O)c2cc(Cc3n[nH]c(=O)c4ccccc34)ccc2F)CC1 | 0.79 µM
24 | 6.37 µM | – | 1.75 µM | 9.71 µM | O=C(CCC(=O)N1CCN(C(=O)c2cc(Cc3n[nH]c(=O)c4ccccc34)ccc2F)CC1)NCCOCCOCCOCCNC(=O)COc1ccc2c(c1)CCCN2C(=O)CCl | 1.6 µM
25 | 1.22 µM | Active | 0.29 µM | 2.42 µM | O=C(CCC(=O)N1CCN(C(=O)c2cc(Cc3n[nH]c(=O)c4ccccc34)ccc2F)CC1)NCCCCCNC(=O)COc1ccc2c(c1)CCCN2C(=O)CCl | 0.89 µM
26 | 5.7 µM | Active | 0.66 µM | 6.21 µM | O=C(CCC(=O)N1CCN(C(=O)c2cc(Cc3n[nH]c(=O)c4ccccc34)ccc2F)CC1)NCCCCCCCNC(=O)COc1ccc2c(c1)CCCN2C(=O)CCl | 1.69 µM
27 | 7.43 µM | – | 0.78 µM | 11 µM | O=C(CCC(=O)N1CCN(C(=O)c2cc(Cc3n[nH]c(=O)c4ccccc34)ccc2F)CC1)NCCOCCOCCOCCOCCNC(=O)COc1ccc2c(c1)CCCN2C(=O)CCl | 1.95 µM
28 | 1.7 µM | Active | 0.077 µM | 2.69 µM | O=C(COc1ccc2c(c1)CCCN2C(=O)CCl)NCCCCCCCCC(=O)N1CCN(C(=O)c2cc(Cc3n[nH]c(=O)c4ccccc34)ccc2F)CC1 | 0.15 µM
